Measurements published in patent US20090075915A1, “6,11-BICYCLOLIDES: BRIDGED BIARYL MACROLIDE DERIVATIVES” (priority 2007, published 2009).
In brackets after ≈: the same amount, converted by molar mass. Entries after “also recorded” stand apart in the source; their conditions may differ. Like-named read-outs stand apart in the source and are kept apart here. Blank lines part the entries; values can stand above or below the compound they belong to.

Assays:
[1] = Tissue accumulation at the site of infection (plasma, skin, skin abscess); details: for AUC(0-inf) / AUC(0-t) / Cmax / Kp / Tmax / half-life: mouse, po, 50 mg/kg
S. aureus 7662 = assay: Systemic mouse protection model, S. aureus 7662; assay type: in vivo; details: Staphylococcus aureus, S. aureus 7662, iv
MRSA 33591 = assay: MIC, MRSA 33591; assay type: cell-based, Staphylococcus aureus; details: Staphylococcus aureus, MRSA; Table 5
Experimental: (§1) Susceptibility tests can be used to quantitatively measure the in vitro activity of an antimicrobial agent against a given bacterial isolate. Compounds are tested for in vitro antibacterial activity by a micro-dilution method. Minimal Inhibitory Concentration (MIC) is determined in 96 well microtiter plates utilizing the appropriate broth medium for the observed bacterial isolates. Antimicrobial agents are serially diluted (2-fold) in DMSO to produce a concentration range from about 64 μg/ml to about 0.03 μg/ml. The diluted compounds (2 μl/well) are then transferred into sterile, uninoculated medium (0.2 mL) by use of a 96 fixed tip-pipetting station. The inoculum for each bacterial strain is standardized to approximately 5×10^5 CFU/mL by optical comparison to a 0.5 McFarland turbidity standard. The plates are inoculated with 10 μl/well of adjusted bacterial inoculum. The 96 well plates are covered and incubated at 35±2° C. for 24 hours in ambient air environment. Following incubation, plate wells are visually examined by Optical Density measurement for the presence of growth (turbidity). The lowest concentration of an antimicrobial agent at which no visible growth occurs is defined as the MIC.
(§2) All in vitro testing follows the guidelines described in the Approved Standards M7-A7 protocol, published by the Clinical Laboratory Standards Institute (CLSI).

S. aureus Smith [2] = assay: Systemic mouse protection model (MPT), S. aureus Smith; assay type: in vivo; details: Staphylococcus aureus
H influenzae 49247 = assay: MIC, H influenzae 49247; assay type: cell-based, Haemophilus influenzae; details: Haemophilus influenzae, 49247; Table 5
Experimental: as §1, §2

H influenzae 33929 = assay: MIC, H influenzae 33929; assay type: cell-based, Haemophilus influenzae; details: Haemophilus influenzae, 33929; Table 5
Experimental: as §1, §2

MRSA 7662 [3] = assay: MIC, MRSA 7662; assay type: cell-based; details: Staphylococcus aureus
Experimental: as §1, §2

MRSA 7662 [4] = assay: Mouse skin and soft tissue infection, MRSA 7662; assay type: in vivo; details: Staphylococcus aureus
S. aureus Smith [5] = assay: MIC, S. aureus Smith; assay type: cell-based, Staphylococcus aureus
Experimental: as §1, §2

[6] = Rat PK of amino acid prodrug after IV/PO administration; assay type: in vivo
[7] = In vitro blood incubation of amino acid prodrugs, fresh human blood; assay type: in vitro ADME; details: 2 μM prodrug
Experimental: (§3) Compounds 5, 6, 7 and 8 (2 μM) were incubated with fresh human blood (conducted in duplicate), rat and mouse blood. Reaction was started by the addition of compound 5, and was stopped at predefined time points (0, 5, 10, 15, 30, 45 and 60 minutes) by removing one aliquot from the incubation mixture (0.1 mL per aliquot) and adding it to 3-fold volume of stop reagent (ice-cold acetonitrile, 0.3 mL). Precipitated protein was removed by centrifugation. Prodrug compound 5-8 and parent compound 1 or 3 concentrations in the supernatant were analyzed by LC/MS/MS.

[8] = In vitro blood incubation of amino acid prodrugs, mouse blood; assay type: in vitro ADME, Mice; details: 2 μM prodrug
Experimental: as §3

[9] = In vitro blood incubation of amino acid prodrugs, rat blood; assay type: in vitro ADME; details: 2 μM prodrug
Experimental: as §3

[10] = Oral pharmacokinetics in dog; assay type: in vivo; details: for Cmax / Tmax / half-life / AUC(0-t): in vivo; for Cmax / Tmax / half-life / AUC(0-t) / CLF / F / Vd: oral, Dog; for AUC(0-t): read-out: AUC0-24
H. influenzae 1435 [11] = assay: Rat lung infection model (RLI), H. influenzae 1435; assay type: in vivo; details: Haemophilus influenzae, read-out: ED50 (2Log Red for RLI)
H. influenzae S1280 [12] = assay: Rat lung infection model (RLI), H. influenzae S1280; assay type: in vivo; details: Haemophilus influenzae, read-out: ED50 (2Log Red for RLI)
S. pneumoniae 7701 [13] = assay: Mouse protection test model (MPT), S. pneumoniae 7701; assay type: in vivo; details: Streptococcus pneumoniae
H. influenzae 1435 [14] = assay: MIC, H. influenzae 1435; assay type: cell-based, Haemophilus influenzae; design: unit not given beside the values
Experimental: as §1, §2

[15] = Oral pharmacokinetics in rat; assay type: in vivo; details: 10 mg/kg
[16] = Oral pharmacokinetics in rat plasma and lung tissue; assay type: in vivo; details: 10 mg/kg PO; for AUC(0-t): read-out: AUC0-24; for Kp: lung/plasma, po, 10 mg/kg
S. pneumoniae 7701 [17] = assay: MIC, S. pneumoniae 7701; assay type: cell-based
Experimental: as §1, §2

[18] = Oral pharmacokinetics in mice; assay type: in vivo; details: 15 mg/kg
H. influenzae 3643 [19] = assay: MIC, H. influenzae 3643; assay type: cell-based, Haemophilus influenzae; design: unit not given beside the values
Experimental: as §1, §2

H. influenzae S1280 [20] = assay: MIC, H. influenzae S1280; assay type: cell-based, Haemophilus influenzae; design: unit not given beside the values
Experimental: as §1, §2

H. influenzae 3643 [21] = assay: Rat lung infection model (RLI), H. influenzae 3643; assay type: in vivo; details: Haemophilus influenzae, read-out: ED50 (2Log Red for RLI)
[22] = plasma, 10 mg/kg IV, prodrug itself measured

Compound: CCC(=O)/N=C1\[C@H](C)C[C@@]2(C)OC/C(=N/OCc3ccc(-c4nc(N)cs4)cn3)CO[C@H]([C@H]1C)[C@](C)(O)[C@@H](CC)OC(=O)[C@@](C)(F)C(=O)[C@H](C)[C@H]2O[C@@H]1O[C@H](C)C[C@H](N(C)C)[C@H]1O [Compound 1]
- Accumulation at the site of infection ([1]; infected skin tissue of mice): highly accumulated at the site of infections in infected skin tissue of mice
- AUC(0-inf) ([1]; infected skin abscess): 617000 ng·h/mL
- AUC(0-t) ([1]; infected skin abscess): 257000 ng·h/mL
- Cmax ([1]; infected skin abscess): 9030 ng/mL
- Kp ([1]; infected skin abscess): 25.2
- Tmax ([1]; infected skin abscess): 3 h
- half-life ([1]; infected skin abscess): 52.4 h
- AUC(0-inf) ([1]; plasma): 24500 ng·h/mL
- AUC(0-t) ([1]; plasma): 24400 ng·h/mL
- Cmax ([1]; plasma): 5120 ng/mL
- Tmax ([1]; plasma): 0.5 h
- half-life ([1]; plasma): 5.2 h
- AUC(0-inf) ([1]; uninfected skin): 66600 ng·h/mL
- AUC(0-t) ([1]; uninfected skin): 54600 ng·h/mL
- Cmax ([1]; uninfected skin): 3800 ng/mL
- Kp ([1]; uninfected skin): 2.72
- Tmax ([1]; uninfected skin): 3 h
- half-life ([1]; uninfected skin): 17.9 h
- ED50 (S. aureus 7662): 3.6 mg/kg
- MIC (MRSA 33591): 2 µg/mL (≈ 2.21 µM)
- ED50 (S. aureus Smith [2]; systemic mouse protection model, iv): 4.8 mg/kg
- ED50 (S. aureus Smith [2]; systemic mouse protection model, po): 13.3 mg/kg
- MIC (H influenzae 49247): 4 µg/mL (≈ 4.42 µM)
- MIC (H influenzae 33929): 4 µg/mL (≈ 4.42 µM)
- MIC (MRSA 7662 [3]; S. aureus 7662, table of systemic mouse protection model, read-out: MIC): 1000 µg/mL (≈ 1100 µM)
- MIC (MRSA 7662 [3]; Table 5, read-out: MIC MRSA 7662): 1 µg/mL (≈ 1.1 µM)
- ED50 (MRSA 7662 [4]; MRSA 7662, iv): 12 mg/kg
- ED50 (MRSA 7662 [4]; MRSA 7662, po): 29 mg/kg
- MIC (S. aureus Smith [5]; Staphylococcus aureus, table of systemic mouse protection model, read-out: MIC): 130 µg/mL (≈ 144 µM)

- ClF ([6]; 10 mg/kg IV, prodrug itself measured): 788 mL/min/kg
- AUC(0-inf) [6, 22]: 210 ng·h/mL
- Cmax [6, 22]: 310 ng/mL
- Tmax [6, 22]: 4.8 min
- Vd [6, 22]: 13.3 L/kg
- half-life [6, 22]: 0.2 h
- % remaining after 60 min, Human [7]: 8.3%
- % remaining after 60 min, Mice [8]: 5.6%
- % remaining after 60 min, Rat [9]: 9.3%
Compound: CCC(=O)/N=C1\[C@H](C)C[C@@]2(C)OC/C(=N/OCc3ccc(-c4nc(NC(=O)[C@@H](N)CC(C)C)cs4)cn3)CO[C@H]([C@H]1C)[C@](C)(O)[C@@H](CC)OC(=O)[C@@](C)(F)C(=O)[C@H](C)[C@H]2O[C@@H]1O[C@H](C)C[C@H](N(C)C)[C@H]1O [Compound 6]
- Prodrug in plasma after oral administration ([6]; 10 mg/kg PO, prodrug itself, 10 mg/kg): No prodrug was detected in the plasma; also recorded: None detected in plasma via oral route-
- Conversion to the parent amino derivative (Compound 1) ([6]; after oral (po) and IV administration): rapidly converted to the parent amino derivative

- Cmax ([10]; 5 mg/kg): 2470 ng/mL
- Tmax ([10]; 5 mg/kg): 1.3 h
- half-life ([10]; 5 mg/kg): 7.3 h
- AUC(0-t) ([10]; 5 mg/kg): 32600 ng·h/mL
- Cmax ([10]; 10 mg/kg): 5040 ng/mL
- Tmax ([10]; 10 mg/kg): 6 h
- half-life ([10]; 10 mg/kg): 15.8 h
- AUC(0-t) ([10]; 10 mg/kg): 84400 ng·h/mL
- CLF ([10]; 5 mg/kg): 1.67 mL/min/kg
- F ([10]; 5 mg/kg): 71%
- Vd ([10]; 5 mg/kg): 1.0 L/kg
- CLF ([10]; 10 mg/kg): 1.67 mL/min/kg
- F ([10]; 10 mg/kg): 100%
- Vd ([10]; 10 mg/kg): 1.54 L/kg
- MIC (H. influenzae 1435 [14]): 4
- CLF [15]: 10.7 mL/min/kg
- F [15]: 87%
- Vd [15]: 1.97 L/kg
- Cmax ([15]; plasma): 2540 ng/mL
- Tmax ([15]; plasma): 1.7 h
- half-life ([15]; plasma): 2.1 h
- AUC(0-t) ([15]; plasma, read-out: AUC0-24): 13900 ng·h/mL
- MIC (H influenzae 49247): 4 µg/mL (≈ 4.75 µM)
- Cmax ([16]; Lung): 19000 ± 80 ng/mL
- Tmax ([16]; Lung): 2.33 ± 1.15 h
- half-life ([16]; Lung): 2.51 ± 0.1 h
- AUC(0-t) ([16]; Lung): 110000 ± 12900 ng·h/mL
- Cmax ([16]; Plasma): 2540 ± 80 ng/mL
- Tmax ([16]; Plasma): 1.67 ± 1.15 h
- half-life ([16]; Plasma): 2.06 ± 0.45 h
- AUC(0-t) ([16]; Plasma): 13900 ± 2810 ng·h/mL
- Kp ([16]; read-out: AUC Lung/Plasma): 8 ± 0.9
- Kp ([16]; read-out: Cmax Lung/plasma): 7.5 ± 1
- MIC (H influenzae 33929): 4 µg/mL (≈ 4.75 µM)
- MIC (S. pneumoniae 7701 [17]): <=0.06
- CLF [18]: 26.7 mL/min/kg
- F [18]: 100%
- Vd [18]: 6.8 L/kg
- Cmax ([18]; mouse, in vivo): 2430 ng/mL
- Tmax ([18]; mouse, in vivo): 0.5 h
- half-life ([18]; mouse, in vivo): 2.4 h
- AUC(0-t) ([18]; mouse, in vivo, read-out: AUC0-24): 9800 ng·h/mL
- MIC (H. influenzae 3643 [19]): 16
- MIC (S. aureus Smith [5]; table of animal models of infection): 0.25
- MIC (H. influenzae S1280 [20]): 8
Compound: CC[C@H]1OC(=O)[C@H](C)C(=O)[C@H](C)[C@@H](O[C@@H]2O[C@H](C)C[C@H](N(C)C)[C@H]2O)[C@@]2(C)C[C@@H](C)/C(=N\C(C)=O)[C@H](C)[C@@H](OC/C(=N\OCc3ccc(-c4ccno4)nc3)CO2)[C@]1(C)O [Compound 4]
- Animal pharmacokinetics properties in dogs ([10]; dogs): low clearance, excellent oral absorption (bioavailability) and AUC
- ED50 (H. influenzae 1435 [11]): 33 mg/kg
- ED50 (H. influenzae S1280 [12]): 46 mg/kg
- ED50 (S. pneumoniae 7701 [13]): 9 mg/kg
- ED50 (S. aureus Smith [2]; MPT): 9 mg/kg
- ED50 (H. influenzae 3643 [21]): 64 mg/kg
